Test results: ChEMBL document CHEMBL3813696, “Identification of Compounds with Efficacy against Malaria Parasites from Common North American Plants” (J Nat Prod, 2016)

How the values were obtained:
[1] = Selectivity ratio of IC50 for human HeLa cells to IC50 for multidrug sensitive Plasmodium falciparum HB3; assay type: ADME, cell-based; conditions: for selectivity ratio: HeLa cells versus Plasmodium falciparum HB3, read-out: Ratio IC50; for Ratio IC50: hela
Plasmodium falciparum [2] = assay: Antimalarial activity against multidrug resistant Plasmodium falciparum NHP1337 assessed as growth inhibition after 72 hrs by SYBR Green based fluorescence assay; assay type: functional, organism-based
[3] = Selectivity ratio of IC50 for human HeLa cells to IC50 for multidrug resistant Plasmodium falciparum NHP1337; assay type: ADME, cell-based; conditions: for selectivity ratio: HeLa cells versus Plasmodium falciparum NHP1337, read-out: Ratio IC50; for Ratio IC50: hela
Plasmodium falciparum [4] = assay: Antimalarial activity against multidrug sensitive Plasmodium falciparum HB3 assessed as growth inhibition after 72 hrs by SYBR Green based fluorescence assay; assay type: functional, organism-based
HeLa = assay: Cytotoxicity against human HeLa cells assessed as growth inhibition by sulforhodamine B assay; assay type: cell-based
[5] = Resistance index, ratio of IC50 for multidrug resistant Plasmodium falciparum NHP1337 to IC50 for multidrug sensitive Plasmodium falciparum HB3; assay type: functional
[6] = Plasmodium falciparum, NHP1337, 72 h
[7] = Plasmodium falciparum, HB3, 72 h

Structure (SMILES) | selectivity ratio [1] | IC50 (Plasmodium falciparum [2]; [6]) [µM] | selectivity ratio [3] | IC50 (Plasmodium falciparum [4]) [µM] | IC50 (HeLa; Homo sapiens, HeLa) [µM] | Ratio IC50 [5] | IC50 (Plasmodium falciparum [4]; [7]) [µM] | Ratio IC50 [1] | IC50 (Plasmodium falciparum [2]) [µM] | Ratio IC50 [3] | IC50 (HeLa; hela) [µM]
C=C(C)[C@@H]1CC[C@]2(CO)CC[C@]3(C)[C@H](CC[C@@H]4[C@@]5(C)CC[C@H](OC(=O)/C=C/c6ccc(O)cc6)[C@@](C)(CO)[C@@H]5CC[C@]43C)[C@@H]12 (stereo in doubt) [listing 1 of 2 here] | 9.6 | 1.6 | 14 | 2.3 | 22 |  |  |  |  |  | 
C=C(C)[C@@H]1CC[C@]2(CO)CC[C@]3(C)[C@H](CC[C@@H]4[C@@]5(C)CC[C@H](OC(=O)/C=C/c6ccc(O)cc6)[C@@](C)(CO)[C@@H]5CC[C@]43C)[C@@H]12 (stereo in doubt) [listing 2 of 2 here] |  |  |  |  |  | 0.7 |  |  |  |  | 
C=C(C)[C@@H]1CC[C@]2(CO)CC[C@]3(C)[C@H](CC[C@@H]4[C@@]5(C)CC[C@H](O)[C@@](C)(COC(=O)/C=C/c6ccc(O)c(OC)c6)[C@@H]5CC[C@]43C)[C@@H]12 (stereo in doubt) [listing 1 of 2 here] |  |  |  |  |  | 0.3 |  |  |  |  | 
C=C(C)[C@@H]1CC[C@]2(CO)CC[C@]3(C)[C@H](CC[C@@H]4[C@@]5(C)CC[C@H](O)[C@@](C)(COC(=O)/C=C\c6ccc(O)cc6)[C@@H]5CC[C@]43C)[C@@H]12 | 8.8 | 1.53 | 4.6 |  | 7 | 1.9 | 0.8 |  |  |  | 
CC(=O)O[C@@H]1[C@@H](OC(=O)/C=C\c2ccc(O)cc2)[C@H](Oc2c(-c3ccc(O)cc3)oc3cc(O)cc(O)c3c2=O)O[C@H](COC(=O)/C=C\c2ccc(O)cc2)[C@H]1OC(C)=O | < 1.4 | 3.8 | < 0.8 |  | < 3 | 1.8 | 2.1 |  |  |  | 
C=C(C)[C@@H]1CC[C@]2(CO)CC[C@]3(C)[C@H](CC[C@@H]4[C@@]5(C)CC[C@H](O)[C@@](C)(COC(=O)/C=C/c6ccc(O)c(OC)c6)[C@@H]5CC[C@]43C)[C@@H]12 (stereo in doubt; 3) [listing 1 of 2 here] | > 40 | 0.27 | > 74 | 0.5 | > 20 |  |  |  |  |  | 
C[C@@H]1O[C@@H](Oc2c(-c3ccc(O)cc3)oc3cc(O)cc(O)c3c2=O)[C@H](OC(=O)/C=C/c2ccc(O)cc2)[C@H](OC(=O)/C=C\c2ccc(O)cc2)[C@H]1O | 6 | 4 | 3 |  | 11.9 | 2 | 2 |  |  |  | 
C=C(C)[C@@H]1CC[C@]2(CO)CC[C@]3(C)[C@H](CC[C@@H]4[C@@]5(C)CC[C@H](O)[C@@](C)(CO)[C@@H]5CC[C@]43C)[C@@H]12 | > 5.9 | 5.2 | > 3.8 |  | > 20 | 1.5 | 3.4 |  |  |  | 
C[C@@H]1O[C@@H](Oc2c(-c3ccc(O)cc3)oc3cc(O)cc(O)c3c2=O)[C@H](OC(=O)/C=C/c2ccc(O)cc2)[C@H](OC(=O)/C=C/c2ccc(O)cc2)[C@H]1O | 34 | 7 | 2.9 |  | 20.6 | 12 | 0.6 |  |  |  | 
C[C@@H]1O[C@@H](Oc2c(-c3ccc(O)cc3)oc3cc(O)cc(O)c3c2=O)[C@H](OC(=O)/C=C\c2ccc(O)cc2)[C@H](OC(=O)/C=C\c2ccc(O)cc2)[C@H]1O | 8.9 | 7 | 2.3 |  | 16 | 3.9 | 1.8 |  |  |  | 
COc1cc(O)c(-c2c(C)cc(O)c3c2C(=O)c2cccc(O)c2C3=O)c(O)c1C(C)=O [KNIPHOLONE] | 6.6 | 5 | 6.5 |  | 32.3 | 1 |  |  |  |  | 
CC(=O)O[C@@H]1[C@@H](OC(=O)/C=C/c2ccc(O)cc2)[C@H](Oc2c(-c3ccc(O)cc3)oc3cc(O)cc(O)c3c2=O)O[C@H](COC(=O)/C=C/c2ccc(O)cc2)[C@H]1OC(C)=O | < 5 | 2.1 | < 1.4 |  | < 3 | 3.5 | 0.6 |  |  |  | 
C=C(C)[C@@H]1CC[C@]2(CO)CC[C@]3(C)[C@H](CC[C@@H]4[C@@]5(C)CC[C@H](O)[C@@](C)(COC(=O)/C=C/c6ccc(O)cc6)[C@@H]5CC[C@]43C)[C@@H]12 | 31 | 0.85 | 33 |  | 28 | 0.9 | 0.9 |  |  |  | 
C=C(C)[C@@H]1CC[C@]2(CO)CC[C@]3(C)[C@H](CC[C@@H]4[C@@]5(C)CC[C@H](O)[C@@](C)(COC(=O)/C=C/c6ccc(O)c(OC)c6)[C@@H]5CC[C@]43C)[C@@H]12 (stereo in doubt) [listing 2 of 2 here] |  |  |  |  |  |  | 1 | 20 | 0.31 | 65 | 20
C=C(C)[C@@H]1CC[C@]2(CO)CC[C@]3(C)[C@H](CC[C@@H]4[C@@]5(C)CC[C@H](OC(=O)/C=C/c6ccc(O)cc6)[C@@](C)(CO)[C@@H]5CC[C@]43C)[C@@H]12 (stereo in doubt; 6) [listing 1 of 2 here] |  |  |  |  |  | 0.7 |  |  |  |  | 
C=C(C)[C@@H]1CC[C@]2(CO)CC[C@]3(C)[C@H](CC[C@@H]4[C@@]5(C)CC[C@H](OC(=O)/C=C/c6ccc(O)cc6)[C@@](C)(CO)[C@@H]5CC[C@]43C)[C@@H]12 (stereo in doubt; 6) [listing 2 of 2 here] |  |  |  |  |  |  | 1.9 | > 11 | 1.4 | > 14 | > 20
C=C(C)[C@@H]1CC[C@]2(CO)CC[C@]3(C)[C@H](CC[C@@H]4[C@@]5(C)CC[C@H](OC(=O)/C=C/c6ccc(O)c(OC)c6)[C@@](C)(CO)[C@@H]5CC[C@]43C)[C@@H]12 | > 6.7 | 2.3 | > 8.7 |  | > 20 | 0.8 | 3 |  |  |  | 
C[C@@H]1O[C@@H](Oc2c(-c3ccc(O)cc3)oc3cc(O)cc(O)c3c2=O)[C@H](OC(=O)/C=C\c2ccc(O)cc2)[C@H](OC(=O)/C=C/c2ccc(O)cc2)[C@H]1O | 19 | 4.1 | 2.3 |  | 9.3 | 8.2 | 0.5 |  |  |  | 
C=C(C)[C@@H]1CC[C@]2(CO)CC[C@]3(C)[C@H](CC[C@@H]4[C@@]5(C)CC[C@H](O)[C@@](C)(COC(=O)/C=C/c6ccc(O)c(OC)c6)[C@@H]5CC[C@]43C)[C@@H]12 (stereo in doubt; 3) [listing 2 of 2 here] |  |  |  |  |  | 0.5 |  |  |  |  | 
CC(=O)O[C@@H]1[C@@H](OC(=O)/C=C/c2ccc(O)cc2)[C@H](Oc2c(-c3ccc(O)cc3)oc3cc(O)cc(O)c3c2=O)O[C@H](COC(=O)/C=C\c2ccc(O)cc2)[C@H]1OC(C)=O | < 3.8 | 4 | < 0.8 |  | < 3 | 5 | 0.8 |  |  |  | 
O=c1cc(-c2ccc(O)c(-c3c(O)cc(O)c4c(=O)cc(-c5ccc(O)cc5)oc34)c2)oc2cc(O)cc(O)c12 [AMENTOFLAVONE] | 1.9 | 19 | 2.4 |  | 46.4 | 0.8 | 25 |  |  |  | 
CC(=O)O[C@@H]1[C@@H](OC(=O)/C=C\c2ccc(O)cc2)[C@H](Oc2c(-c3ccc(O)cc3)oc3cc(O)cc(O)c3c2=O)O[C@H](COC(=O)/C=C/c2ccc(O)cc2)[C@H]1OC(C)=O | < 3.3 | 5 | < 0.6 |  | < 3 | 5.6 | 0.9 |  |  |  | 
